Reference: patent US20180099023A1, “METHODS OF TREATING IRON OVERLOAD” (La Jolla Pharmaceutical Company, priority 2016, published 2018)

Tests used:
Assay type in all cases: in vivo, human
[1] = system: serum iron; assay: Serum iron after a single subcutaneous dose of hepcidin in patients (Example 1)
Excerpt: Patients were recruited for a multi-day study to observe serum iron levels following administration of hepcidin. All patients who were recruited had either refractory or hemolytic anemia or hemochromatosis. Patients are divided into cohorts and subsequently treated with hepcidin. Treatment consisted of a single subcutaneous (SC) dose of hepcidin on Day 1. Dose escalation with new cohorts occurred only after the patients at each dose level had been observed for a minimum of 3 days and no drug related toxicity had been observed. The starting dose level was 1 mg given via SC injection on Day 1. Doses ranged from 1 mg to 30 mg. Patient cohorts and dosing can be found in Table 1:
Patients were admitted to the research unit the day before the administration of study drug and discharged following assessments 48 hours post dose. Serum iron, ferritin, transferrin, total iron binding capacity, and unsaturated iron binding capacity were measured on Day 1(baseline) and Day 7 (end of study). Serum iron was also measured at 2, 4, 8, 24, and 48 hours post dosing.

[2] = system: serum iron; assay: Hepcidin administration in patients at risk for iron overload disorders (Example 2)
Experimental: Eighteen patients at risk for iron overload disorders (i.e., refractory or hemolytic anemia or hemochromatosis) received one or two 1-mL subcutaneous injections to achieve the desired dose level (1 mg, 5 mg, 10 mg, 20 mg, or 30 mg). Hepcidin concentration ranged from 1 to 15 mg/mL.

[3] = system: serum iron; assay: Hepcidin administration in healthy subjects (Example 3)
Experimental: This study enrolled 32 healthy adult subjects in 4 dose groups of 8 subjects per cohort, with 6 subjects assigned to hepcidin treatment and 2 subjects assigned to placebo in each cohort. The starting dose was 5 mg of hepcidin or placebo; subsequent dose groups received 10 mg, 20 mg, and 30 mg, respectively. Subjects received between one and three 1-mL subcutaneous (SC) injections to deliver the desired dose level. Hepcidin concentration was either 5 mg/mL or 10 mg/mL. For data analysis purposes, placebo subjects for all cohort groups were pooled.

[4] = Baseline (pre-dose) to Day 8/End of Study

hepcidin: 25-amino acid peptide with the amino acid sequence set forth in SEQ ID NO:1 (DTHFPICIFCCGCCHRSKCGMCCKT)
Percent Change in Serum Iron from Baseline to Hour 8 ([1]; 1 mg single SC dose, n = 3, patients with refractory or hemolytic anemia or hemochromatosis): −14.2% (p = 0.203) | dose response of serum iron reduction ([1]; 1 mg to 20 mg, FIG. 1, p-0.009 for dose response): dose-dependent, statistically significant reduction in serum iron | Percent Change in Serum Iron from Baseline to Hour 8 ([1]; 5 mg single SC dose, n = 3, patients with refractory or hemolytic anemia or hemochromatosis): −26.7% (p = 0.380) | Percent Change in Serum Iron from Baseline to Hour 8 ([1]; 10 mg single SC dose, n = 3, patients with refractory or hemolytic anemia or hemochromatosis): −45.5% (p = 0.077) | reduction of serum iron from baseline to hour 8 ([1]; 20 mg dose level, p=0.001): 55.7% | Percent Change in Serum Iron from Baseline to Hour 8 ([1]; 20 mg single SC dose, n = 6, patients with refractory or hemolytic anemia or hemochromatosis): −55.7% (p = 0.001) | reduction of serum iron from baseline to the end of day 7 ([1]; subjects administered 1 mg, 5 mg, 10 mg or 20 mg, serum iron had not returned to baseline through day 7): 18.0% | serum iron rebound ([1]; subjects administered at least 30 mg): rebound effect which resulted in above-baseline serum iron levels within 48 hours of treatment | dose response of serum iron decrease ([2]; 1 mg to 30 mg SC): greater decrease in serum iron at higher doses | Mean maximum percentage reduction in serum iron ([2]; 20-mg dose group, 8 hours post-dose): 58% | TSAT % level change [2, 4]: Decreases | ferritin level change [2, 4]: Decreases | total iron binding capacity (TIBC) change [2, 4]: Decreases | transferrin level change [2, 4]: Decreases | serum iron levels compared to baseline ([2]; all five dose groups (1, 5, 10, 20, 30 mg SC)): decrease in serum iron levels compared to baseline was generally observed | duration of serum iron reduction ([2]; most patients): sustained up to Day 8 in most patients | anti-drug antibodies ([2]; patients at risk for iron overload disorders): No anti-drug antibodies were detected | Unsaturated iron binding capacity (UIBC) change from baseline ([3]; Day 8): no trends in changes from baseline | Ferritin change from baseline ([3]; Day 8, all treatment groups): increased | TSAT % change from baseline ([3]; Day 8, all treatment groups): increased | total iron binding capacity (TIBC) change from baseline ([3]; Day 8, all treatment groups): increased | transferrin change from baseline ([3]; Day 8, all treatment groups): increased | anti-drug antibodies ([3]; healthy subjects): No anti-drug antibodies were detected | maximum reduction in serum iron, 20 mg versus 30 mg ([3]; healthy subjects): no apparent difference | time for serum iron levels to return to baseline ([3]; healthy subjects): < 48 h | dose response of serum iron reduction ([3]; healthy subjects, 5 to 30 mg): larger reductions in serum iron generally associated with increases in dose up to 20 mg
